Experimental data published in patent publication US9597332B2, “Sulfide alkyl compounds for HBV treatment” (NOVIRA THERAPEUTICS, INC., priority 2014, dated 2017).

System: HBV replication in HepG2-2.2.15 cells
Experiment: Inhibition of HBV replication dot-blot assay
Type: cell-based
Conditions: Hepatitis B virus, 144 h, 6 days, reduction in HBV DNA levels
Method: Compounds active in the HBV assembly assay are tested for their activity and toxicity in cellular assay. In the first anti-viral assay, the ability of compounds to inhibit HBV replication in an HBV-producing hepatoma cell line using the dot-blot method is evaluated.
(§1) Briefly, confluent monolayers of HepG2-2.2.15 cells are incubated with complete medium containing various concentrations of a test compound. Three days later, the culture medium is replaced with fresh medium containing the appropriately diluted test compound. Six days following the initial administration of the test compound, the cell culture supernatant is collected, and cell lysis is performed. The samples are applied onto Nylos membranes and DNA is immobilized to the membrane by UV cross-linking. After pre-hybridization, the HBV probe is added and the hybridization is performed overnight. The membranes are exposed to the KODAK films; antiviral activity is calculated from the reduction in HBV DNA levels (EC50). The EC50 for antiviral activity is calculated from the dose response curves of active compounds. Assay performance over time is monitored by the use of the standard positive control compounds ETV, BAY 41-4109, and HAP-1.
Selected compounds are tested for their activity and toxicity in cellular assay. In the first anti-viral assay, the ability of compounds to inhibit HBV replication in an HBV-producing hepatoma cell line using the dot-blot method is evaluated.
as §1, with “Confluent monolayers” for “Briefly, confluent monolayers”, “lysis was” for “lysis is”

SMILES	EC50 [µM]
O=C(Nc1cc(F)c(F)c(F)c1)c1ccc(F)c(S[C@H]2CCCC[C@@H](O)C2)c1 (racemic) [Example 14A, (±)-4-Fluoro-3-(((1S,3R)-3-hydroxycycloheptyl)thio)-N-(3,4,5-trifluorophenyl)benzamide]	< 10
O=C(Nc1cc(F)c(F)c(F)c1)c1ccc(F)c(S[C@H]2CCCC[C@H](O)C2)c1 (racemic) [Example 14B, (±)-4-Fluoro-3-(((1R,3R)-3-hydroxycycloheptyl)thio)-N-(3,4,5-trifluorophenyl)benzamide]	< 10
O=C(Nc1ccc(F)c(Cl)c1)c1ccc(F)c(SC2CCC[C@H](O)C2)c1 (mixture of isomers) [Example 21, (±)-N-(3-Chloro-4-fluorophenyl)-4-fluoro-3-(((1R,3R)-3-hydroxycyclohexyl)thio)benzamide]	< 10
O=C(Nc1ccc(F)c(Cl)c1)c1ccc(F)c(S[C@H]2CC[C@H](O)C2)c1 (racemic) [Example 25, (±)-N-(3-Chloro-4-fluorophenyl)-4-fluoro-3-(((1S,3S)-3-hydroxycyclopentyl)thio)benzamide]	< 10
